{
  "source": "patent US20250177448A1",
  "about": "“NEW USE OF PEG-PHOSPHOLIPID MOLECULES” (ICOAT MEDICAL AB, priority 2022, published 2025)",
  "key": {"CD52": {"test_system": "CD52", "experiment": "Antibody binding to surface antigen on PEG-phospholipid coated CCRF-CEM, flow cytometry", "type": "cell-based, human", "settings": "2 mg/ml in PBS, 30 minutes room temperature; antigen around 1 nm", "procedure": "(§1) CCRF-CEM were collected from cell culture medium (1×10^6 cells) and washed with PBS by centrifugation (250×g, 3 min, RT). A cell pellet of CCRF-CEM (1×10^6 cells) was incubated with PEG-phospholipid (50 μl, 2 mg/ml in PBS), 5 kDa unconjugated PEG (50 μl, 2 mg/ml in PBS) or PBS (50 μl, as control) for 30 min at RT with gentle mixing. After washing with PBS by centrifugation (200×g, 4° C., 3 min) twice, FITC-labeled three antibodies, FITC-anti-human CD52 from BioLegend (400 μg/ml, 40 μl), FITC-anti-human CD4 from BioLegend (200 μg/ml, 40 μl), or Alexa488-labelled anti-human CD8 from GeneTex (200 μg/ml, 40 μl, Alexa488 was labelled by the labelling kit) or PBS (40 μl) was mixed with the treated CCRF-CEM for 15 min at RT. As a control, CCRF-CEM was treated with 2 mg/ml PEG (5 kDa, in PBS) solution and additionally incubated with FITC- or Alexa488-labeled antibodies. After washing with PBS by centrifugation (200×g, 4° C., 3 min), CCRF-CEM were re-suspended with PBS (1 ml) for flow cytometry measurements. Samples were analyzed on a flow cytometer (BD LSR II, BD Biosciences). Post analysis processing was carried out in FlowJo (BD).\n(§2) CCRF-CEM cells were incubated with PEG-phospholipid (2 mg/ml in PBS), free PEG (5 kDa, equivalent molecular weight used in the synthesis of PEG-phospholipid) or PBS (vehicle control) for 30 minutes at room temperature. After removing excess PEG-phospholipid, FITC-labelled antibodies directed towards surface antigens of different sizes, CD52, CD4, and CD8, were added. Samples were analyzed on a flow cytometer. […] The size of CD8 is estimated to be around 5-10 nm based on the crystal structure of the non-membranous part. Lastly, CD4-antibodies were not blocked by PEG-phospholipid, as expected, given that the size of the antigen (15 nm) is larger than the size of PEG-phospholipid (estimated to be around 6 nm) (FIG. 3A)."}, "CD4": {"test_system": "CD4", "experiment": "Antibody binding to surface antigen on PEG-phospholipid coated CCRF-CEM, flow cytometry", "type": "cell-based, human", "settings": "2 mg/ml in PBS, 30 minutes room temperature; antigen 15 nm", "procedure": "as §1, §2"}, "CD8": {"test_system": "CD8", "experiment": "Antibody binding to surface antigen on PEG-phospholipid coated CCRF-CEM, flow cytometry", "type": "cell-based, human", "settings": "2 mg/ml in PBS, 30 minutes room temperature; antigen around 5-10 nm", "procedure": "as §1, §2"}, "[1]": {"test_system": "porcine kidney transplant, ischemia reperfusion injury", "experimental": "TAT was measured in both human and porcine plasma using an anti-human thrombin monoclonal antibody was used for capturing and an HRP-coupled anti-human antithrombin (AT) antibody was used for detection (Enzyme Research Laboratories, South Bend, IN, USA).\nIn addition, TNF, IL-1b, IL-6 and tissue factor (TF) were quantified in plasma by immunoassays using a GyroLab workstation (Gyros, Uppsala, Sweden), and the presence of these compounds, as well as IFNγ in biopsies (below) were verified by PCR.\nParaffin sections of porcine kidney tissue were cut (3-5 μm), deparaffinized in xylene and rehydrated with a graded series of ethanol and distilled water. For IHC staining a heat-induced antigen retrieval was performed by boiling the sections in sodium citric buffer (pH 6), the sections were blocked with 10% normal goat serum (Jackson Immunoresearch) before primary antibody incubation: anti-MAC (abcam ab66768); anti-C3b alpha chain (Bioss bs-4873R); anti-C4d (abcam ab64157), anti-C5aR (Acris AP06509PU-N), anti-HO1 (abcam ab52947), anti-CSE (abnova H00001491-M01), anti-Nitrotyrosine (Merck Millipore AB5411), anti-NOS2 (Santa Cruz sc-651), detection was performed by DAKO Real\nDetection System alkaline phosphatase red (Dako). The sections were counterstained with Mayer's hematoxylin (Sigma #51275). Control staining was done with a nonspecific rabbit IgG (Dako #X0936). The slides were visualized using a Zeiss Axio Imager A1 microscope with a ×10 objective (100-fold magnification). Intensity of staining was quantified on multiple randomly selected 800,000 μm^2 sections using the AxioVision 4.8 software (Zeiss). Data are presented as mean densitometric sum red."}, "[2]": {"test_system": "Rhesus factors D, C, c, E and e on erythrocytes", "experiment": "Agglutination test and Rh phenotyping of coated erythrocytes", "type": "cell-based", "settings": "2 mg/ml final, 30 min 37° C.; one O Rh+ and two A Rh+ blood samples; vs untreated control", "procedure": "Whole blood samples (one O, Rh+ blood sample and two A Rh+ blood samples) from the blood center were centrifuged in Eppendorf tubes in an Eppendorf 5810R centrifuge at 2500 rpm for 10 min at room temperature (20-25° C.) and the plasma was removed and discarded. The cell fractions were subject to three washing steps in 50 ml falcon tubes. Each washing step involved adding 45 ml phosphate buffered saline (PBS) to 1 ml cell fraction followed by centrifugation at 2500 rpm for 10 minutes at room temperature.\n100 μl cell suspension was mixed with 900 μl PBS and 1000 μl PEG-phospholipid (4 mg/ml, polyethylene glycol-phospholipid with PEG of 5 kDa (PEG-phospholipid) in PBS, SUNBRIGHT® PP-050CN, N-(methylpolyoxyethylene oxycarbonyl)-1,2-dipalmitoyl-sn-glycero-3-phosphoethanolamine, sodium salt, NOF Corp., Japan) to coat the erythrocytes with 2 mg/ml PEG-phospholipid (final concentration) or 1000 μl PBS as control. The erythrocyte samples were incubated 30 min at 37° C. in an incubator under rotation in a POL-EKO laboratory incubator. The erythrocyte samples were washed three times with 2 ml PBS and centrifuged at 2500 rpm for 5 min at room temperature in a Heraeus Biofuge Pico centrifuge.\nThe washed erythrocyte samples were then subject to an agglutination test and Rh phenotyping. […]"}, "[3]": {"test_system": "mannan binding lectin (MBL)", "experiment": "Binding of lectin pathway recognition molecule to coated HUVEC after serum exposure, flow cytometry", "type": "cell-based, human", "settings": "0.5 mg/ml", "procedure": "(§3) Post analysis processing was carried out in FlowJo."}, "collectin-11 (CL-11)": {"test_system": "collectin-11 (CL-11)", "experiment": "Binding of lectin pathway recognition molecule to coated HUVEC after plasma exposure, flow cytometry", "type": "cell-based", "settings": "0.5 mg/ml, after human plasma exposure", "procedure": "as §3"}, "[4]": {"settings": "ANSM biopsies, electron microscopy, vs matched individual controls"}, "[5]": {"settings": "ANSM, 1, 60 and 360 min, treated vs non-treated kidneys"}, "[6]": {"settings": "ANSM, 6 h observation, treated vs untreated kidneys"}, "[7]": {"settings": "ANSM, treated vs untreated kidneys"}},
  "note": "“Also recorded” adds a separate entry of the source.",
  "data": [
    {"substance": "N-(methylpolyoxyethylene oxycarbonyl)-1,2-dipalmitoyl-sn-glycero-3-phosphoethanolamine [PEG-phospholipid]", "values": [
      {"measurement": "binding of antibodies directed towards CD52", "setting": "CD52", "result": "entirely blocked; also recorded: near complete inhibition; also recorded: effective masking"},
      {"measurement": "binding of CD4-antibodies", "setting": "CD4", "result": "not blocked; also recorded: no significant masking"},
      {"measurement": "binding capacity of CD8-antibodies", "setting": "CD8", "result": "reduced but not entirely blocked; also recorded: partial masking"},
      {"measurement": "glomerular NETosis (renal NET deposition)", "setting": "[1]; [4]", "result": "marked decrease"},
      {"measurement": "tubular NETosis (renal NET deposition)", "setting": "[1]; [4]", "result": "marked decrease"},
      {"measurement": "HO-1 staining in biopsies", "setting": "[1]; [5]", "result": "No difference was found"},
      {"measurement": "INOS staining in biopsies", "setting": "[1]; [5]", "result": "No difference was found"},
      {"measurement": "nitrotyrosine staining in biopsies", "setting": "[1]; [5]", "result": "No difference was found"},
      {"measurement": "C3a in renal vein blood", "setting": "[1]; [6]", "result": "substantially lower"},
      {"measurement": "FXIla-C1INH in renal vein blood", "setting": "[1]; [6]", "result": "substantially lower"},
      {"measurement": "TAT in renal vein blood", "setting": "[1]; [6]", "result": "substantially lower"},
      {"measurement": "sC5b-9 in renal vein blood", "setting": "[1]; [6]", "result": "substantially lower"},
      {"measurement": "IL-1β mRNA expression in kidney biopsies", "setting": "[1]; ANSM, RT-PCR, vs controls", "result": "lower"},
      {"measurement": "IL-6 mRNA expression in kidney biopsies", "setting": "[1]; ANSM, RT-PCR, vs controls", "result": "lower"},
      {"measurement": "TF mRNA expression in kidney biopsies", "setting": "[1]; ANSM, RT-PCR, vs controls", "result": "lower"},
      {"measurement": "TNF mRNA expression in kidney biopsies", "setting": "[1]; ANSM, RT-PCR, vs controls", "result": "lower"},
      {"measurement": "deposition of NETs in all locations (glomerular, tubular, vascular)", "setting": "[1]; ANSM, n=6", "result": "highly significant reduction"},
      {"measurement": "binding of C3b in kidney biopsies", "setting": "[1]; [7]", "result": "significantly lower binding"},
      {"measurement": "binding of C4d in kidney biopsies", "setting": "[1]; [7]", "result": "tendency of a lower binding"},
      {"measurement": "IL-1β plasma concentration in the renal vein", "setting": "[1]; ANSM, vs controls", "result": "lower"},
      {"measurement": "IL-6 plasma concentration in the renal vein", "setting": "[1]; ANSM, vs controls", "result": "lower"},
      {"measurement": "TF plasma concentration in the renal vein", "setting": "[1]; ANSM, vs controls", "result": "lower"},
      {"measurement": "TNF plasma concentration in the renal vein", "setting": "[1]; ANSM, vs controls", "result": "lower"},
      {"measurement": "time within which fluorescence migrated from the glomeruli to the tubular system", "setting": "[1]; pig, in vivo", "result": "≤ 6", "unit": "h"},
      {"measurement": "agglutination of erythrocytes (Rhesus factor antigens)", "setting": "[2]", "result": "inhibited agglutination"},
      {"measurement": "decrease of MBL binding from human serum", "setting": "[3]", "result": "25-30%"},
      {"measurement": "binding of CL-11", "setting": "collectin-11 (CL-11)", "result": "substantially reduced"}
    ]}
  ]
}
